What was measured:
[1] = target: T1, FAP‐transfected HT‐1080‐FAP cells (Homo sapiens, UniProt Q12884); test: In vitro binding/uptake on FAP-transfected HT-1080-FAP cells; format: cell-based; details: HT1080-FAP cells; for uptake 10 min: 10 min incubation; for uptake 60 min: 60 min incubation; for uptake 120 min: 120 min incubation; for uptake, measurement at 90 min: printed in 120 min column, footnote a: 90 min
T1 construct: expressed in transfected cells; host or cells: HT-1080 cells transfected with FAP (HT-1080-FAP)
T1 sequence (Q12884 1-760): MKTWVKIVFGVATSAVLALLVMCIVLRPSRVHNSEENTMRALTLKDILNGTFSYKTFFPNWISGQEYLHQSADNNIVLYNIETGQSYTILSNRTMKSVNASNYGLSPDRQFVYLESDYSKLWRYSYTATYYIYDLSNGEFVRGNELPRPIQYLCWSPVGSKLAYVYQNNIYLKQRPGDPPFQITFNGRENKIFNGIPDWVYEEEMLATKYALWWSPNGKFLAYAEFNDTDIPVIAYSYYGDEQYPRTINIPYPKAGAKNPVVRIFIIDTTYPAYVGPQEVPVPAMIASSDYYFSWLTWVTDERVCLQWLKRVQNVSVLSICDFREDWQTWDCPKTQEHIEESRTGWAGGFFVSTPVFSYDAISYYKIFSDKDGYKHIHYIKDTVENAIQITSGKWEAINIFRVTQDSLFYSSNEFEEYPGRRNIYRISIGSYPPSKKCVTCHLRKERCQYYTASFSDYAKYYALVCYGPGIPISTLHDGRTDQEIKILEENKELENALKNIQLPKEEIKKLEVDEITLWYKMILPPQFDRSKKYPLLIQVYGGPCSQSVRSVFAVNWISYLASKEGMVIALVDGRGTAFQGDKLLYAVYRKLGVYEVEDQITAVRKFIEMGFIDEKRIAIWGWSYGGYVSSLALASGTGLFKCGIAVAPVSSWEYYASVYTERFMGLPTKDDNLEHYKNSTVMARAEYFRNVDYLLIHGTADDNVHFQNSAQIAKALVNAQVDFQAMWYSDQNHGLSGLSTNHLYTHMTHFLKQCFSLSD
Procedure: (§1) The binding properties of the FAPI derivatives were evaluated using the FAP‐transfected HT‐1080‐FAP and CD26 expressing HEK-CD26 cells. All cells were cultivated in Dulbecco's modified Eagle's medium (DMEM) containing 10% fetal calf serum (FCS) at 37 °C/5% carbon dioxide. Cells were seeded in 6-well plates and cultivated to a final confluence of approximately 80–90% (1.2 to 2.0 × 10^6 cells/well). After washing with FCS free medium, for each well ca. 3 kBq of the radiolabeled compound (10–20 GBq/µmol for [^18F]AlF-labeling) was added to the cells in FCS free medium. On completion of the individual incubation time, cells were washed with PBS and treated with 1.4 mL lysis buffer (0.3 m NaOH, 0.2% SDS) before being transferred to measuring tubes. Competition experiments were performed by co-incubation with the unlabeled precursor for 60 min. Radioactivity was determined in a Wizard Gamma Counter (Perkin Elmer), normalized to 10^6 cells and calculated as percentage of the applied dose (%AD). Each experiment was performed in triplicate.

[2] = Determination of logD values (1-octanol / PBS); format: physicochemical; details: 1-octanol / phosphate buffered saline, pH 7.4
Procedure: All experiments for the determination of logD values were performed in triplicate. For the determination by means of radioactivity, around 5 × 10^6 cpm in ca. 1 µL of radioactive stock solutions (water/acetonitrile 1:1) were added to 100 µL phosphate buffered saline (PBS, pH 7.4) and 100 µL of 1-octanol. The mixture was vortexed for 1 min, followed by 5 min of centrifugation for phase separation. A sample of each phase (10 or 50 µL) was measured for radioactivity per volume (Packard Cobra II Autogamma, GMI Inc., USA). In case of FAPI-72 and -73, the reference compounds [^19F]-FAPI-72 and -73 were dissolved in PBS at a concentration of 1 mg/mL. 50 µL of these solutions were each mixed with 50 µL 1-octanol and processed by vortexing and centrifugation as described above. 1 µL of each phase was analyzed by HPLC and the individual content of compound was determined by peak integration. The area under the peaks of the individual runs was used to calculate the log D value.
Fig. 1 Overview of the synthesized precursors discussed in this study. The corresponding log D values were determined by detection of the radiolabeled tracer in 1-octanol and phosphate buffered saline (pH 7). For values labeled with an asterix, the log D was calculated from the relative content of the non-radioactive reference standards in the 1-octanol and the water phase by HPLC analysis and peak integration TEXT PRINTED IN THE PICTURE: FAPI-42: LOG D: -1.63±0.06 | FAPI-52: LOG D: -1.90±0.02 | FAPI-72: LOG D: 1.20±0.01* | FAPI-73: LOG D: 1.13±0.05* | FAPI-74: LOG D: -2.42±0.03 | FAPI-75: LOG D: -3.36±0.12 | FAPI-76: LOG D: -2.86±0.07

FAP (HT-1080-FAP cells) = target: T2, FAP (HT-1080-FAP cells) (Homo sapiens, UniProt Q12884); test: Competition experiments with unlabeled precursor on HT-1080-FAP cells; format: binding; details: co-incubation with unlabeled precursor for 60 min
T2 construct: expressed in transfected cells; host or cells: HT-1080 cells transfected with FAP (HT-1080-FAP)
T2 sequence (Q12884 1-760): T1 sequence (Q12884 1-760)
Procedure: as §1

HT-1080-FAP xenografts = test: Small animal PET imaging; format: in vivo, BALB/c nu/nu mice; details: for Tumor Uptake (SUVmean) 8 min / Tumor Uptake (SUVmean) 22 min / Tumor Uptake (SUVmean) 57 min / Tumor Uptake (SUVmean) 120 min: HT1080-FAP transplanted nude mice
Procedure: Eight-week-old BALB/c nu/nu mice (Charles River) were subcutaneously inoculated with 5 × 10^6 HT-1080-FAP cells. The subcutaneous xenografts were grown at the flanks of the mice. Xenografts were grown to a tumor diameter of 10–15 mm. Mice were anesthetized using isoflurane inhalation. 5–10 MBq of the [^18F]AlF-labeled compounds/ the respective tracer (FAPI-42/52/74/75/76; approx. 0.5 nmol; Am approximately 10–20 GBq/µmol) were injected intravenously for PET imaging. In vivo competition (blocking) experiments with ^68 Ga-FAPI-74 (9 MBq; 18.2 GBq/µmol) were performed by adding 30 nmol of unlabeled FAPI-74 to the injection solution. Images were acquired using a small-animal PET scanner (Inveon, Siemens). Within the first 60 min p.i., a dynamic scan was performed in list mode, followed by a static scan from 120–140 min post injection. Images were reconstructed iteratively using the 3D-OSEM + MAP method (Siemens) and were converted to standardized uptake value (SUV). For the dynamic analysis, 28 frames were reconstructed. Quantification was based on ROI analysis and expressed as SUV.
SUPPLEMENTAL TABLE 1: Tumor-SUVmean values of all mentioned ^18F labeled FAPI-derivatives in HT1080-FAP transplanted nude mice at different time points. The time points 8 min, 22 min and 57 min were selected from the applied 28-frame 3D-OSEM+MAP (Siemens) reconstruction method.

wild type HT1080 cells = test: In vitro binding on wild type HT1080 cells (negative control); format: cell-based
Procedure: as §1
Table 1 summarizes the uptake and EC50 values of the discussed ^18F-labeled FAPI derivatives using the FAP-transfected cell line HT-1080-FAP. Additionally, the lead candidates FAPI-74 to -76 were tested on HEK-CD26 as well as -74 and -75 on wild type HT1080 cells as negative control. […] For FAPI-74, a plateau was already reached after approximately 10 min with 27.2 ± 0.88%AD/10^6cells. […] The EC50 values were all in the low to sub-nanomolar range. Only a neglectable fraction of FAPIs 74–76 were detected on HEK-CD26 cells (0.18–0.24%) as well as on wildtype HT1080 in case of -74 and 75 (< 0.1%).

[3] = target: T3, CD26 expressing HEK-CD26 cells (Homo sapiens, UniProt P27487); test: In vitro binding on HEK-CD26 cells (negative control); format: cell-based
T3 construct: expressed in transfected cells; host or cells: HEK cells transfected with CD26/DPP4 (HEK-CD26)
Procedure: as §1

[4] = test system: U87MG- and A549-xenograft models; details: in vivo; cited from earlier work
[5] = radiolabeled tracer detected by radioactivity in 1-octanol and phosphate buffered saline
[6] = small animal PET, HT-1080-FAP xenograft
[7] = non-radioactive reference standards, 1-octanol and water phase, HPLC analysis and peak integration (asterisk)

T3 sequence (P27487 whole entry): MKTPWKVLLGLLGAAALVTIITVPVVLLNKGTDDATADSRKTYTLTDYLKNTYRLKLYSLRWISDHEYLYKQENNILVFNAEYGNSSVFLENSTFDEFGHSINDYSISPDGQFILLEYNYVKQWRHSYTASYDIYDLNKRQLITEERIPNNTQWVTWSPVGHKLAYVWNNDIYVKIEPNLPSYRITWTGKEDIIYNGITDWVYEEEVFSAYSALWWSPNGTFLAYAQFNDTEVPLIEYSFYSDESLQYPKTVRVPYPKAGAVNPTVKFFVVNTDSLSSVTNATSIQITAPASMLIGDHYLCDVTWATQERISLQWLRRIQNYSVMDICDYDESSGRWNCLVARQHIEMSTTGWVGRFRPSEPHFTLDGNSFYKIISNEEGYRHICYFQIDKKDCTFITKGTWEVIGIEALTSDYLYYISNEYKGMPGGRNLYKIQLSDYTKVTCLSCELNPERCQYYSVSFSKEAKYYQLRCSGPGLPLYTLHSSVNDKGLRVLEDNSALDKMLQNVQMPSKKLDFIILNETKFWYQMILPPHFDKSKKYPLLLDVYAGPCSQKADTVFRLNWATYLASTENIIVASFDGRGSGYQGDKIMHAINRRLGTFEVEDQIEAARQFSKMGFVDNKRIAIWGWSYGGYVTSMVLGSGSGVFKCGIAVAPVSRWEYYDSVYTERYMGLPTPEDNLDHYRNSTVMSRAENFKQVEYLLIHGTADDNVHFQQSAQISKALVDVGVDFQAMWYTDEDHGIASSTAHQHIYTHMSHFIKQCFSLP

SMILES | uptake 10 min [1] | uptake 60 min [1] | uptake 120 min [1] | logD [2, 5] | EC50 (FAP (HT-1080-FAP cells)) | Tumor Uptake (SUVmean) 8 min (HT-1080-FAP xenografts) | Tumor Uptake (SUVmean) 22 min (HT-1080-FAP xenografts) | Tumor Uptake (SUVmean) 57 min (HT-1080-FAP xenografts) | Tumor Uptake (SUVmean) 120 min (HT-1080-FAP xenografts) | uptake, measurement at 90 min [1] | logD [2, 7] | detectability of tumor region in PET (HT-1080-FAP xenografts; [6]) | other results
N#C[C@@H]1CC(F)(F)CN1C(=O)CNC(=O)c1ccnc2ccc(OCCCN3CCN(C(=O)[C@H](CC(C(=O)O)C(=O)O)NC(=O)CN4CCN(CC(=O)O)CCN(CC(=O)O)CC4)CC3)cc12 [FAPI-75] | 34.9 ± 0.26 %AD/10^6 cells | 74.0 ± 2.07 %AD/10^6 cells | 82.35 ± 3.61 %AD/10^6 cells | -3.36 ± 0.12 | 3.1 nM | 1.55 | 2.06 | 2.24 | 1.9 |  |  |  | excretion pathway (HT-1080-FAP xenografts; small animal PET in tumor bearing mice): favorable renal excretion; tumor uptake SUVmean (HT-1080-FAP xenografts; small animal PET screening, discussion): approx. 2.0; tumor-SUV max (HT-1080-FAP xenografts; [6]): 3.7; tumor-SUV mean (HT-1080-FAP xenografts; [6]): 2.2; uptake WT (wild type HT1080 cells; wild type HT1080 control cells): 0.06 ± 0.01 %AD/10^6 cells; fraction detected on wildtype HT1080 (wild type HT1080 cells; wildtype HT1080, text): < 0.1%; uptake CD26 [3]: 0.18 ± 0.02 %AD/10^6 cells
CN(CCCN1CCN(C(=O)c2ccc([N+](C)(C)C)nc2)CC1)c1ccc2nccc(C(=O)NCC(=O)N3CC(F)(F)C[C@H]3C#N)c2c1 [FAPI-72] | 13.9 ± 0.60 %AD/10^6 cells | 23.6 ± 0.40 %AD/10^6 cells |  |  | < 1 nM | 0.19 | 0.15 | 0.13 | 0.1 | 24.4 ± 0.30^a %AD/10^6 cells | 1.2 ± 0.01 | hardly detectable | 
CN(CCCN1CCN(C(=O)CN2CCN(CC(=O)O)CCN(CC(=O)O)CC2)CC1)c1ccc2nccc(C(=O)NCC(=O)N3CC(F)(F)C[C@H]3C#N)c2c1 [FAPI-52] | 32.0 ± 0.28 %AD/10^6 cells | 45.9 ± 0.54 %AD/10^6 cells | 53.2 ± 1.38 %AD/10^6 cells | -1.9 ± 0.02 | 3.2 nM | 0.65 | 0.55 | 0.47 | 0.20 |  |  |  | 
C[N+](C)(C)c1ccc(C(=O)N2CCN(CCCOc3ccc4nccc(C(=O)NCC(=O)N5CC(F)(F)C[C@H]5C#N)c4c3)CC2)cn1 [FAPI-73] | 22.7 ± 0.24 %AD/10^6 cells | 39.2 ± 0.48 %AD/10^6 cells |  |  | < 1 nM | 0.45 | 0.44 | 0.42 | 0.33 | 39.6 ± 0.95^a %AD/10^6 cells | 1.13 ± 0.05 | hardly detectable | 
N#C[C@@H]1CC(F)(F)CN1C(=O)CNC(=O)c1ccnc2ccc(OCCCN3CCN(C(=O)CN4CCN(CC(=O)O)CCN(CC(=O)O)CC4)CC3)cc12 [FAPI-42] | 40.0 ± 1.73 %AD/10^6 cells | 61.2 ± 1.76 %AD/10^6 cells | 58.0 ± 2.24 %AD/10^6 cells | -1.63 ± 0.06 | 3.3 nM | 1.05 | 1.0 | 0.73 | 0.60 |  |  |  | elimination and bone accumulation [4]: hepatobiliary elimination together with an accumulation in the bone; tumor uptake SUVmean at early timepoints (HT-1080-FAP xenografts; small animal PET screening, early timepoints): approx. 1.0

Source: article PMC8380212, “^18F-labeled tracers targeting fibroblast activation protein” (EJNMMI Radiopharmacy and Chemistry, 2021)
